Publication PMC7176092, “Development of the first in vivo GPR17 ligand through an iterative drug discovery pipeline: A novel disease-modifying strategy for multiple sclerosis” (PLoS ONE, 2020)
Marks after values point to notes of the source that are not given here.

T1: M5 (Homo sapiens, UniProt P08912)
T1 construct: Eurofins Cerep (external service)
T1 sequence (P08912 1-532): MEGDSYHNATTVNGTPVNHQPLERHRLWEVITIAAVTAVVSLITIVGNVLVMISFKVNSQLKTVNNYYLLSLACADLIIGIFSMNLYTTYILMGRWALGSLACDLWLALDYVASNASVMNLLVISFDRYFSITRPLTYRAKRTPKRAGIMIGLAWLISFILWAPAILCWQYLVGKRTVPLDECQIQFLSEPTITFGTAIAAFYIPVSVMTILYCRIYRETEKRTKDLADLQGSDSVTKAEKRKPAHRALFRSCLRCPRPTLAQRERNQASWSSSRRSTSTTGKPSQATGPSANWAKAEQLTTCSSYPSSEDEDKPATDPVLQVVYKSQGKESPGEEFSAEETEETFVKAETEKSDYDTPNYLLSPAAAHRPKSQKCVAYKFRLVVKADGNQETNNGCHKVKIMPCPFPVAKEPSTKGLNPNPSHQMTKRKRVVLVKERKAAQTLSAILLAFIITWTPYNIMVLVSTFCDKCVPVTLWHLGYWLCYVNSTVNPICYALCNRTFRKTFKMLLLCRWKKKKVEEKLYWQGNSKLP

T2: CXCR2 (Homo sapiens, UniProt P25025)
T2 construct: Eurofins Cerep (external service)
T2 sequence (P25025 1-360): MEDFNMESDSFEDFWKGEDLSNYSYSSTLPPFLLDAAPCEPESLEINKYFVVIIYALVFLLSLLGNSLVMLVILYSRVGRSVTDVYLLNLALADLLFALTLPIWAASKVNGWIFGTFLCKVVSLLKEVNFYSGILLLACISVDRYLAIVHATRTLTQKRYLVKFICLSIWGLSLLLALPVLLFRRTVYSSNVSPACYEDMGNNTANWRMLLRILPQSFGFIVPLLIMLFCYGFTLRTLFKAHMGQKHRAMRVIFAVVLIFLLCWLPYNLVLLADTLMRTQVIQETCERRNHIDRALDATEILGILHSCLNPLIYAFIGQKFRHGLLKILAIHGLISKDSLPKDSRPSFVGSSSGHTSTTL

T3: CCR3 (Homo sapiens, UniProt P51677)
T3 sequence (P51677 1-355): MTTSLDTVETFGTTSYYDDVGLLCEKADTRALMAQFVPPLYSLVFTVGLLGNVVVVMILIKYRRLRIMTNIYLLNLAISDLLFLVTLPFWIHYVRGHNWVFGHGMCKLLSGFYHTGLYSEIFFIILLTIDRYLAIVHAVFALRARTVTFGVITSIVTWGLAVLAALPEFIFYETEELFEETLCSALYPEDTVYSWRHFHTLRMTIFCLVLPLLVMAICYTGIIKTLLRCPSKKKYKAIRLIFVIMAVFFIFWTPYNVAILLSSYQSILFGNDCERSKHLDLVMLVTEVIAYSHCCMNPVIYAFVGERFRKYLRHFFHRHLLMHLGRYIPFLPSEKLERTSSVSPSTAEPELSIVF

T4: CX3CR1 (Homo sapiens, UniProt P49238)
T4 sequence (P49238 1-355): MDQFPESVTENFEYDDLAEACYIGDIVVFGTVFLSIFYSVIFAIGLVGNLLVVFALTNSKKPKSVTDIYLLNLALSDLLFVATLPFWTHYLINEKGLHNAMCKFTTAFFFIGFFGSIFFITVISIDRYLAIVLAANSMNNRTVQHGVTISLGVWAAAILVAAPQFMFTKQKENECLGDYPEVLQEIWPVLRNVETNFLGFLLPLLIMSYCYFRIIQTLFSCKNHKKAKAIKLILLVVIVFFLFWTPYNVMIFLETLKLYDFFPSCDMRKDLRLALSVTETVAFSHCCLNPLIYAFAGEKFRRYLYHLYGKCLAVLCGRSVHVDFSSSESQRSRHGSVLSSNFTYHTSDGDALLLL

B1: CX3CL1: chemokine, reference agonist for CX3CR1 (protein, UniProt P78423 25-397, looked up)
Fractalkine: QHHGVTKCNITCSKMTSKIPVALLIHYQQNQASCGKRAIILETRQHRLFCADPKEQWVKDAMQHLDRQAAALTRNGGTFEKQIGEVKPRTTPAAGGMDESVVLEPEATGESSSLEPTPSSQEAQRALGTSPELPTGVTGSSGTRLPPTPKAQDGGPVGTELFRVPPVSTAATWQSSAPHQPGPSLWAEAKTSEAPSTQDPSTQASTASSPAPEENAPSEGQRVWGQGQSPRPENSLEREEMGPVPAHTDAFQDWGPGSMAHVSVVPVSSEGTPSREPVASGSWTPKAEEPIHATMDPQRLGVLITPVPDAQAATRRQAVGLLAFLGLLFCLGVAMFTYQSLQGCPRKMAGEMAEGLRYIPRSCGSNSYVLVPV
B2: eotaxin 2: chemokine, reference agonist for CCR3 (protein, UniProt O00175 27-119, looked up)
C-C motif chemokine 24: VVIPSPCCMFFVSKRIPENRVVSYQLSSRSTCLKAGVIFTTKKGQQFCGDPKQEWVQRYMKNLDAKQKKASPRARAVAVKGPVQRYPGNQTTC

Legend:
human GPR17 = biological target: T5, human GPR17 (Homo sapiens, UniProt Q13304); assay: [35S]GTPγS binding assay; assay type: biochemical; settings: for EC50: membranes of 1321N1 cells transfected with human GPR17, mean ± SEM of 3 experiments
T5 construct: HA; expressed in transfected cells
Protocol: [^35S]GTPγS binding assays were carried out as previously described. Briefly, control and astrocytoma 1321N1 cells stably transfected with human pcDNA3.1 (control cells) and human HA-tag GPR17 were homogenized in 5 mM Tris/HCl and 2 mM EDTA (pH 7.4) and centrifuged at 48,000g for 15 min at 4°C. The resulting pellets were washed in 50 mM Tris/HCl and 10 mM MgCl2 (pH 7.4). After protein dosage, aliquots of cell membranes were incubated with increasing concentrations of each investigated ligand (1 pM–10 μM) and GTPγS binding to activated G-proteins was quantified as previously described. Compounds were purchased from two external providers, i.e., Ambinter (Ambinter c/o Greenpharma, Orléans, France http://www.ambinter.com/) and Asinex (http://www.asinex.com/).
For analysis and graphic presentation of [^35S]GTPγS binding data, a nonlinear multipurpose curve fitting computer program (Graph-Pad Prism) was used. All data are presented as the mean ± SEM of three different experiments.
The selected 15 molecules were evaluated in our in-house [^35S]GTPγS functional assay in membranes from cells transfected with human GPR17. […] Moreover, this assay has been already successfully used in the past to measure the ability of both endogenous and novel synthetic compounds to activate GPR17 [25, 31]. All tested molecules were able to potently activate GPR17 with nanomolar/sub-nanomolar affinities. Concentration-response curves obtained for each selected compound are reported in S4 Fig.

M5 = biological target: T1, M5; assay: Binding assay M5; settings: reference compound
CXCR2 = biological target: T2, CXCR2; assay: Binding assay CXCR2; settings: reference compound
mGluR5 = biological target: T6, mGluR5 (Homo sapiens, UniProt P41594); assay: Binding assay mGluR5; settings: reference compound
T6 construct: Eurofins Cerep (external service)

CCR2 = biological target: T7, CCR2 (Homo sapiens, UniProt P41597); assay: Binding assay CCR2; settings: reference compound
T7 construct: Eurofins Cerep (external service)

P2Y = assay: Binding assay P2Y; parameters: species or system human; settings: reference compound
CCR3 = biological target: T3, CCR3; assay: Cellular functional assay CCR3
CX3CR1 = biological target: T4, CX3CR1; assay: Cellular functional assay CX3CR1; settings: reference agonist
[1] = standard LTD4 50 nM set to 100% († compounds)
[2] = standard LTC4 50 nM set to 100% (¶ compounds)

T5 sequence (Q13304 29-367): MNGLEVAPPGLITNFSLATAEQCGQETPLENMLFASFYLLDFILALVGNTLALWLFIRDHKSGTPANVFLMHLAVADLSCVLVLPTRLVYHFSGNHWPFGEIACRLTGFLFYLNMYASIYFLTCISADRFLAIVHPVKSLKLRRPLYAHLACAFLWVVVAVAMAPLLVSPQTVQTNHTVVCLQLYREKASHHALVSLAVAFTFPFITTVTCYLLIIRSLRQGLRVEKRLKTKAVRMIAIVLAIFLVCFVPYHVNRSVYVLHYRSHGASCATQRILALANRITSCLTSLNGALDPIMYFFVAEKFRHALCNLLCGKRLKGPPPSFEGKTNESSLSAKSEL
T6 sequence (P41594 21-1212): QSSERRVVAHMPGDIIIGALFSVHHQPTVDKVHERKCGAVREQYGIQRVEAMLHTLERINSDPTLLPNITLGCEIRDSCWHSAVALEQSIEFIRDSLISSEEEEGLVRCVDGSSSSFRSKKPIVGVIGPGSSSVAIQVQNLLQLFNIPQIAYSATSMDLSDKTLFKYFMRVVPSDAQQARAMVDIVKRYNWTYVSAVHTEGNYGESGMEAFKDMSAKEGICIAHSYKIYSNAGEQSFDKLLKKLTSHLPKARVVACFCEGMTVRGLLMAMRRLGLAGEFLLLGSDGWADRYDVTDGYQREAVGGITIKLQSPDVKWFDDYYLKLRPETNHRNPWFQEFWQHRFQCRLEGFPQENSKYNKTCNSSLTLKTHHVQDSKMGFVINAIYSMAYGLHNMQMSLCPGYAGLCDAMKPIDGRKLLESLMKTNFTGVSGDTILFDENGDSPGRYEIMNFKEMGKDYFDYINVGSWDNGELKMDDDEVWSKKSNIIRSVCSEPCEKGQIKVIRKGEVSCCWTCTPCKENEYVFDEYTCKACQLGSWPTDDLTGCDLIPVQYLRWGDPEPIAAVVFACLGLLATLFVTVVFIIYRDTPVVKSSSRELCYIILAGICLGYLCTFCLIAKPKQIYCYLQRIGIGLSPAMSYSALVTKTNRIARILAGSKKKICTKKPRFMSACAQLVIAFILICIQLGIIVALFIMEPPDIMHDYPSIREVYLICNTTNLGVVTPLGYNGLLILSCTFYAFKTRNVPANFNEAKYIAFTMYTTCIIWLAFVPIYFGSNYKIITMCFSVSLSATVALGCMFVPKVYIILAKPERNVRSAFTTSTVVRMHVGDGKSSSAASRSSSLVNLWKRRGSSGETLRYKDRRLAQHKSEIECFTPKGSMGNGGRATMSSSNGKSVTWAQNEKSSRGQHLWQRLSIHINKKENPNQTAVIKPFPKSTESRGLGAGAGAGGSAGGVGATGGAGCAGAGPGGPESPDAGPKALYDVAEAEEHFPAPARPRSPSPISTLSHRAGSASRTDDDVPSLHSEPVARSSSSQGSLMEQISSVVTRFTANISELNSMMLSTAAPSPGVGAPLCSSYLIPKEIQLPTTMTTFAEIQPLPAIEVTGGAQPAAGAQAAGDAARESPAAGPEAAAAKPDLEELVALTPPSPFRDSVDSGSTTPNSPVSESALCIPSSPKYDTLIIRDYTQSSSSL
T7 sequence (P41597 whole entry): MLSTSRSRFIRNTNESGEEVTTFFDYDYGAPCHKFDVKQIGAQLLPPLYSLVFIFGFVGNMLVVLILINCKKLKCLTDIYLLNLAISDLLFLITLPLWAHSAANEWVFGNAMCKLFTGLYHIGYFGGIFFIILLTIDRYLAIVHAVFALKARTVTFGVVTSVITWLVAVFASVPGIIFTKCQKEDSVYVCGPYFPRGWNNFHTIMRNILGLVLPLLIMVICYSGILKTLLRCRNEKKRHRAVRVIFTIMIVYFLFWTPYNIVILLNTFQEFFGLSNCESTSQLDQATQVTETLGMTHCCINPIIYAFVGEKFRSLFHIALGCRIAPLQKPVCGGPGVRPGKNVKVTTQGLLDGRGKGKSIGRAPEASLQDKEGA

Molecule	EC50 (human GPR17)	Emax (% vs basal) (human GPR17; mean ± SEM)	% Emax (ratio vs Emax of the standard) (human GPR17; [2])	other results
CCCCC/C=C\C\C=C/C=C/C=C/[C@@H](SC[C@H](N)C(=O)NCC(=O)O)[C@@H](O)CCCC(=O)O [LTD4, reference compound]				Emax (% vs basal) (human GPR17; reference agonist at 50 nM): 144.4 ± 7.1%
Cn1c(SCC(=O)Nc2ccc(Cl)cc2)nnc1-c1ccc(NC(=O)c2ccccc2)cc1 [Compound 4]	0.43 ± 0.08 nM	160.0 ± 10.6%		% Emax (ratio vs Emax of the standard) (human GPR17; [1]): 110.8%
Cc1cccc(-c2n[nH]c(SCC(=O)Nc3ccccc3)n2)c1 [Compound 10]	0.24 ± 0.06 nM	142.0 ± 5.8%		% Emax (ratio vs Emax of the standard) (human GPR17; [1]): 98.3%
Cc1cccc(-c2n[nH]c(SCC(=O)Nc3cccc4ccccc34)n2)c1 [Compound 7]	0.48 ± 0.09 nM	151.3 ± 6.7%		% Emax (ratio vs Emax of the standard) (human GPR17; [1]): 104.8%
CCOc1ccc(-n2c(SCC(=O)Nc3ccc4c(c3)OCCO4)nnc2-c2ccccc2Cl)cc1 [Compound 13]	3.29 ± 0.28 nM	141.3 ± 7.6%	100.2%	
C[N+]1(C)CCC(OC(=O)C(c2ccccc2)c2ccccc2)CC1 [Compound 4-DAMP, 4-DAMP, reference compound]				IC50 (M5): 0.73 nM; Ki (M5): 0.37 nM
CCc1ccccc1-n1c(SCC(=O)Nc2ccccc2Cl)nnc1-c1ccccc1O [Compound 6]	0.52 ± 0.09 nM	135.0 ± 10.2%		% Emax (ratio vs Emax of the standard) (human GPR17; [1]): 93.5 ^* %
COc1ccc(-n2c(SCC(=O)Nc3cc(C(C)(C)C)no3)nnc2-c2ccccc2OC)cc1 [Compound 11]	22.5 ± 4.3 nM	134.3 ± 8.8%	95.3%	
IL-8: chemokine, reference compound for CXCR2 binding				IC50 (CXCR2): 0.26 nM; Ki (CXCR2): 0.12 nM
N[C@@H](Cn1oc(=O)[nH]c1=O)C(=O)O [L-Quisqualate, reference compound]				IC50 (mGluR5): 67 nM; Ki (mGluR5): 14 nM
MCP-1: chemokine, reference compound for CCR2 binding				IC50 (CCR2): 0.072 nM; Ki (CCR2): 0.029 nM
O=C(CSc1nnc2n(Cc3ccc(Cl)cc3)c3ccccc3n12)N1CCc2ccccc2C1 [Compound 19]	9.5 ± 1.47 nM	153.7 ± 1.1%	108.5 ^* %	
COc1ccccc1-c1nnc(SCC(=O)Nc2ncc3c(n2)CCCC3=O)[nH]1 [Compound 15]	2.9 ± 0.1 nM	137.1 ± 1.3%	97.23%	
dATPS [reference compound]				IC50 (P2Y): 51 nM; Ki (P2Y): 25 nM
COc1ccccc1-c1nnc(SCC(=O)Nc2ncc3c(n2)CC(C)(C)CC3=O)[nH]1 [Compound 16]	3.45 ± 0.5 nM	139.6 ± 1.5%	99.0%	
COc1ccc(-c2nnc(SCC(=O)Nc3ncc(Cc4ccc(Cl)cc4)s3)n2-c2ccccc2)cc1OC [Compound 14]	2.7 ± 0.4 nM	139.3 ± 2.5%	98.8%	
CCCCC/C=C\C\C=C/C=C/C=C/[C@@H](SC[C@H](NC(=O)CC[C@H](N)C(=O)O)C(=O)NCC(=O)O)[C@@H](O)CCCC(=O)O [LTC4, reference compound]				Emax (% vs basal) (human GPR17; reference agonist at 50 nM): 141.0 ± 3.9%
Cc1nc2ccc(NC(=O)CSc3nnc(-c4ccccc4)[nH]3)cc2[nH]1 [Compound 8]	0.24 ± 0.02 nM	144.8 ± 6.4%		% Emax (ratio vs Emax of the standard) (human GPR17; [1]): 100.3%
CC[N+]1(C/C2=C/CCCCCC2)CCC(NC(=O)C2c3cc(Cl)ccc3Oc3ccc(Cl)cc32)CC1 (stereo not drawn) [Compound J113863, J113863, reference compound]				IC50 (CCR3; reference antagonist): 8.9 nM
COc1ccccc1-c1nnc(SCC(=O)Nc2nccs2)[nH]1 [Compound 17]	8.48 ± 0.9 nM	136.2 ± 0.5%	96.6%	
CCOc1ccc(-n2c(SCC(=O)Nc3ccc(Cl)c(C(F)(F)F)c3)nnc2-c2cccc(C)c2)cc1 [Compound 12]	7.11 ± 1.96 nM	127.7 ± 4.1%	90.6 ^* %	
B1				EC50 (CX3CR1): 2.2 nM
B2				EC50 (CCR3; reference agonist): 6.4 nM
